Like-named read-outs stand apart in the source and are kept apart here.
Legend:
[1] = tested on: ventral tegmental area (VTA) dopaminergic neurons; assay: Firing frequency of VTA dopaminergic neurons in acute brain slices (electrophysiology); type: cell-based, mouse; conditions: for firing frequency of VTA neurons: acute slices from male C57Bl6/J mice, current clamp; for reduction in firing frequency after pre-treatment with D2 receptor antagonist sulpiride: acute slices
Protocol: The firing frequency of ventral tegmental area (VTA) dopaminergic neurons (n=4-8 cells/experiment) in acute slice preparations was recorded using electrophysiology and analyzed. Brain slices (250 μm thickness) containing VTA from male C57Bl6/J mice were prepared using standard procedures. Slices were perfused with artificial cerebrospinal fluid (aCSF) and spontaneous action potentials were recorded from dopaminergic neurons in current clamp conditions using […] and pClamp10 (Axon Instruments; Revel, Proc. Natl. Acad. Sci. USA 108(20):8485-90 (2011)). […] In addition, the reduction in firing frequency by solriamfetol or TAAR1 agonist RO5256390 was antagonized by pre-treatment with the D2 receptor antagonist sulpiride (FIG. 3A-3B).

[2] = tested on: wild type mice; assay: Open field locomotor activity, wild type mice; type: in vivo, mouse; conditions: subcutaneous, solriamfetol 10, 30 or 100 mg/kg, amphetamine 2 mg/kg
Protocol: (§1) Open field locomotor activity was assessed using an automated Omnitech Digiscan (AccuScan Instruments, Columbus, OH).

[3] = tested on: dopamine transporter deficient (DAT-/-) mice; assay: Open field locomotor activity, DAT-/- mice (hyperlocomotion); type: in vivo, mouse; conditions: subcutaneous, solriamfetol 10, 30 or 100 mg/kg, amphetamine 2 mg/kg
Protocol: as §1

[4] = molecular target: T1, human norepinephrine transporter (hNET) (Homo sapiens, UniProt P23975); assay: hNET inhibition, in vitro binding and functional studies
T1 sequence (P23975 whole entry): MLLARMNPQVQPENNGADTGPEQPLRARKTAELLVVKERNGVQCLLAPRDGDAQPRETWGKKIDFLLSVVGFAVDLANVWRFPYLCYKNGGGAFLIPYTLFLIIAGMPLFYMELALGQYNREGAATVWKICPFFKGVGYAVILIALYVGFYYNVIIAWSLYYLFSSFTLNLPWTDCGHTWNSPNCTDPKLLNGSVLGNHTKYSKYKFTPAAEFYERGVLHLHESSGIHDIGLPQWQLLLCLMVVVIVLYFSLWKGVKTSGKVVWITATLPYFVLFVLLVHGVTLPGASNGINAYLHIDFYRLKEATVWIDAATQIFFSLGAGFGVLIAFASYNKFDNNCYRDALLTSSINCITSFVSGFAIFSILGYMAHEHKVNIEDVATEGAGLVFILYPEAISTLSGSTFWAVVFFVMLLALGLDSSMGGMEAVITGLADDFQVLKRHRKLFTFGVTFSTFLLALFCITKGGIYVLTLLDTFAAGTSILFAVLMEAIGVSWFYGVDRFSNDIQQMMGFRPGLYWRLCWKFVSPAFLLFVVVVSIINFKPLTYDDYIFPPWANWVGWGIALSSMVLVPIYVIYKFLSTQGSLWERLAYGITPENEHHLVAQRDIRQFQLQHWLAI

[5] = molecular target: human dopamine transporter (hDAT) (Homo sapiens, UniProt Q01959); assay: hDAT inhibition, in vitro binding and functional studies
Chain of human dopamine transporter (hDAT) (Q01959 whole entry): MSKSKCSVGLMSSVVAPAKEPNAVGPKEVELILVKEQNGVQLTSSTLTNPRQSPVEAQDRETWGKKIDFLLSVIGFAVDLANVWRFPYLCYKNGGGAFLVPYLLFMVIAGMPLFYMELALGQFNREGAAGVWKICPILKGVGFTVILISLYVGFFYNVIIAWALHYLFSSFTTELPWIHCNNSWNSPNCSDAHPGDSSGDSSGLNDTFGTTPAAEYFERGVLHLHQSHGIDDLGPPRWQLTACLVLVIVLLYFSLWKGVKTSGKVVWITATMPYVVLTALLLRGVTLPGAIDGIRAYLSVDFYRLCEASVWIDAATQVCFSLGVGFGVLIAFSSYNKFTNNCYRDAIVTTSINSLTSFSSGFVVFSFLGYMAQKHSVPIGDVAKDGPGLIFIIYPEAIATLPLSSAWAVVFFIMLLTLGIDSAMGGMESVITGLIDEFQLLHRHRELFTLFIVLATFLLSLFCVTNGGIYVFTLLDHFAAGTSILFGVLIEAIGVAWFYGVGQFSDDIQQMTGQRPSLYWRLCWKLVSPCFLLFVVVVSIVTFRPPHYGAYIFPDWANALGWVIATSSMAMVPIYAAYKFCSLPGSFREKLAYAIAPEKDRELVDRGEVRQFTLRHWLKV

[6] = Binding assay panel for additional targets
[7] = molecular target: T1, human norepinephrine transporter (hNET); parameters: host or cells: unnamed cell lines or membrane preparations; conditions: data from published literature (footnote b); cited from earlier work

Row | Molecule | firing frequency of VTA neurons [1] | reduction in firing frequency after pre-treatment with D2 receptor antagonist sulpiride [1] | locomotor activity (total distance traveled in 90 minutes) [2] | hyperlocomotion (total distance traveled in 90 minutes) [3] | IC50 [4] [µM] | further results
1 | CC[C@@H](C[C@H]1COC(N)=N1)c1ccccc1 [RO5256390] | inhibited firing frequency by VTA neurons in a dose-dependent manner | antagonized |  |  |  | 
2 | CC(N)Cc1ccccc1 (centres unmarked) [amphetamine] |  |  | increase locomotor activity | reduced hyperlocomotion |  | 
3 | NC(=O)OC[C@H](N)Cc1ccccc1 [Solriamfetol, (R)-2-amino-3-phenylpropyl carbamate] | inhibited firing frequency by VTA neurons in a dose-dependent manner | antagonized | did not increase locomotor activity | reduced hyperlocomotion | 14.4 | IC50 [5]: 3.21 µM; additional targets in binding assay panel [6]: no additional targets were identified
4 | (+)Methamphetamine |  |  |  |  |  | IC50 [7]: 0.0013 µM
5 | CCN(C[C@H]1COC(N)=N1)c1ccccc1 [ROS166017] |  |  |  | reduced hyperlocomotion |  | 
6 | NC(=O)C[S+]([O-])C(c1ccccc1)c1ccccc1 (centres unmarked) [Modafinil] |  |  |  |  | > 100 | 

Reference: patent publication US20260256729A1, “CARBAMOYL PHEN[…] AS TAAR1 AGONISTS” (AXSOME THERAPEUTICS, INC., priority 2022, published 2026)
